Experimental data reported in US8372854B2, “Pyrrolo[2,3-D]pyrimidine compounds” (Pfizer Inc., priority 2009, dated 2013).

Tests used:
Type in all cases: biochemical
JAK2 = molecular target: T1, JAK2 (Homo sapiens, UniProt O60674); assay: JAK enzymatic assay (peptide mobility shift), JAK2; conditions: recombinant JAK2 2 nM, ATP 4 μM, 1 μM JAKtide peptide, 150 minutes
T1 construct: purchased Invitrogen Corporation, Madison, Wis; PV4210
Description: (§1) Recombinant JAK1 (Catalog Number PV4775), JAK2 (Catalog Number PV4210) and JAK3 (Catalog Number PV3855) were purchased from (Invitrogen Corporation, Madison, Wis.). Tyk2 (His-Tyk2 (888-1182, C936S, C1142S)) used in this study was expressed and purified at Pfizer Laboratories. Adenosine 5′-triphosphate (ATP) was obtained from (Sigma Chemical Company, St. Louis, Mo.). The JAKtide peptide (peptide sequence, FITC-[…]) used for the JAK2 and JAK3 assays and the IRS-1 peptide (peptide sequence, 5-FAM-[…]) used for the JAK1 and Tyk2 assays were purchased from (American Peptide Company, Sunnyvale, Calif.). Coating Reagent 3 was purchased from (Caliper Life Sciences, Hopkinton, Mass.).
(§2) A peptide mobility shift assay was used to quantify the phosphorylation of the JAKtide (JAK2 and JAK3) or the IRS-1 peptide ([…] and Tyk2). Reactions were carried out in a 384-well plate (Matrical MP-101) in a 10 μL total volume. Reaction mixtures contained 20 mM HEPES, pH 7.4, 10 mM magnesium chloride, 0.01% bovine serum albumin (BSA), 0.0005% Tween-20, ATP (4 μM for JAK2 and JAK3, 40 μM for JAK1 and 7 μM for Tyk2)), 2% DMSO and 1 μM peptide substrate (JAKtide for JAK2 and JAK3 and IRS-1 peptide for JAK1 and Tyk2). Compounds were diluted serially in 100% dimethyl sulfoxide and tested in an 11 point dose response in duplicate or quadruplicate (200 nl of compound/DMSO was added per 10 μL reaction). The reactions were initiated by the addition of enzyme to the final concentration of 2 nM JAK2, 1 nM JAK3, 12 nM Tyk2 or 20 nM JAK1. The assay was run for 240 minutes for JAK1, 150 minutes for JAK2, 90 minutes for JAK3 and 70 minutes for Tyk2. The assays were stopped at the specified times with 20 uL of 140 mM HEPES, 22.5 mM EDTA and 0.15% Coating Reagent 3. The plates were placed on a LabChip 3000 (LC3000) instrument from (Caliper Life Sciences) to measure the formation of phosphorylated peptide. Data was analyzed using Hits Well Analyzer Software from (Caliper Life Sciences) to obtain the amount of product formed.
(§3) Data was then imported into an internal application where each data point is expressed as % inhibition based on uninhibited and no enzyme controls. Dose-response data is then fit using a 4 parameter logistic equation (Equation 1) to determine an IC50.
(§4) Where max is the fitted uninhibited value, min is the fitted complete inhibition value, and s is the slope factor.

JAK1 = molecular target: T2, JAK1 (Homo sapiens, UniProt P23458); assay: JAK enzymatic assay (peptide mobility shift), JAK1; conditions: recombinant JAK1 20 nM, ATP 40 μM, 1 μM IRS-1 peptide, 240 minutes
T2 construct: purchased Invitrogen Corporation, Madison, Wis; PV4775
T2 sequence (P23458 whole entry): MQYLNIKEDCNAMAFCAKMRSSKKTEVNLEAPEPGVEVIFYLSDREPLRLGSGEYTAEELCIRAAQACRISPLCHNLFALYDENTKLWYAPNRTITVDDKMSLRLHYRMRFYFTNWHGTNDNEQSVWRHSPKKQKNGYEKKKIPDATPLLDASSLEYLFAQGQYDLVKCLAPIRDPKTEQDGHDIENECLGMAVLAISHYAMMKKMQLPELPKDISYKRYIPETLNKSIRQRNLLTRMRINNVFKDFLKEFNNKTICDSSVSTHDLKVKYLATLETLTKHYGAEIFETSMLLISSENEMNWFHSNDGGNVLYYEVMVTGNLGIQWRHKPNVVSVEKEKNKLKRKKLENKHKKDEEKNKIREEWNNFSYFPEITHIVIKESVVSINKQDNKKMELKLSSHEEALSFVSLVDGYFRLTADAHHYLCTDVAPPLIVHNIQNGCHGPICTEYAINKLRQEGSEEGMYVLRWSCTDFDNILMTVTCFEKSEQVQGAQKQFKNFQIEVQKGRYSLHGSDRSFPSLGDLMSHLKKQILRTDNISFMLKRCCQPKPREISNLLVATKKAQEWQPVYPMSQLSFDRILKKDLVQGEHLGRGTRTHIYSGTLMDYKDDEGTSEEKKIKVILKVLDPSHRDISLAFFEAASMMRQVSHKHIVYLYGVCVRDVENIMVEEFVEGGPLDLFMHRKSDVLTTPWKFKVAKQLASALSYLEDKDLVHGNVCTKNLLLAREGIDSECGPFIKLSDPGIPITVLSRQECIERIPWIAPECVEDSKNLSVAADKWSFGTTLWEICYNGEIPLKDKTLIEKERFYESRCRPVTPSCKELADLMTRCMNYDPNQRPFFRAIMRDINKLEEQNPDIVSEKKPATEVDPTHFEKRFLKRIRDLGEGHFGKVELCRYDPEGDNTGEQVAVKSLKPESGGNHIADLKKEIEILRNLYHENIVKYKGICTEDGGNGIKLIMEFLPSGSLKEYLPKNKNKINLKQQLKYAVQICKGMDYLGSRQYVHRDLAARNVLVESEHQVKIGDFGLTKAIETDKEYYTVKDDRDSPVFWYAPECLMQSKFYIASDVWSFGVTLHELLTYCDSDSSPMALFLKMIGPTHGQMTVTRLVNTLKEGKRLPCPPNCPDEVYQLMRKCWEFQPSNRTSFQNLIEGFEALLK
Description: as §1, §2, §3, §4

JAK3 = molecular target: T3, JAK3 (Homo sapiens, UniProt P52333); assay: JAK enzymatic assay (peptide mobility shift), JAK3; conditions: recombinant JAK3 1 nM, ATP 4 μM, 1 μM JAKtide peptide, 90 minutes
T3 construct: purchased Invitrogen Corporation, Madison, Wis; PV3855
T3 sequence (P52333 1-1124): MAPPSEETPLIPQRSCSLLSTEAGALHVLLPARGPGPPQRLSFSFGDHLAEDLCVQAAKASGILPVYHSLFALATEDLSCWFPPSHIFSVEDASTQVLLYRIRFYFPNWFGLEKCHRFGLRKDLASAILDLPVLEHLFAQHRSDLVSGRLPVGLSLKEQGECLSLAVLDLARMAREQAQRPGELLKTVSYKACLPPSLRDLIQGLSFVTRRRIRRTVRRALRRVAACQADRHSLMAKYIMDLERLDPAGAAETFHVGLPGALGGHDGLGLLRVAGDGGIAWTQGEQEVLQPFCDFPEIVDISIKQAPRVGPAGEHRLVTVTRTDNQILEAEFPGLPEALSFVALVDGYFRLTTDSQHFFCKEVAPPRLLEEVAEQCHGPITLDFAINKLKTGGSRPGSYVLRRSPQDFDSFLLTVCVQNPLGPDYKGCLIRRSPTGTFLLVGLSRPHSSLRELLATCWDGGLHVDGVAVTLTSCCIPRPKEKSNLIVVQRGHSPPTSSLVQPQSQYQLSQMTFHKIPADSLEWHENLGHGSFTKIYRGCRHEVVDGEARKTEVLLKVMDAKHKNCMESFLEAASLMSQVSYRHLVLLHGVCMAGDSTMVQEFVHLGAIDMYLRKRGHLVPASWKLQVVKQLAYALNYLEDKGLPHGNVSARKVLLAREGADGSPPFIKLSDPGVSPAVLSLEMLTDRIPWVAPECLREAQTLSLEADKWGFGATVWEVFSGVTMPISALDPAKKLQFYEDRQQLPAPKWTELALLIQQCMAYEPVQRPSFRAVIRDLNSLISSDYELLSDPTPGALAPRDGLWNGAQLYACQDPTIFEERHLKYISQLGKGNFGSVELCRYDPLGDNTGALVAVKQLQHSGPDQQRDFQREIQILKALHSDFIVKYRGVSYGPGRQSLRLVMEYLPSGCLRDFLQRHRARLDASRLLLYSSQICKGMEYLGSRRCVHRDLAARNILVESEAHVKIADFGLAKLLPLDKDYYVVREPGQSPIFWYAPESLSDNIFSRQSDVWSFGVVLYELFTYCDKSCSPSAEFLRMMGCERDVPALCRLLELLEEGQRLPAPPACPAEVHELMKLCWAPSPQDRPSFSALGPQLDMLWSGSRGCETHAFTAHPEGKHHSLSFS
Description: Recombinant JAK1 (Catalog Number PV4775), JAK2 (Catalog Number PV4210) and JAK3 (Catalog Number PV3855) were purchased from (Invitrogen Corporation, Madison, Wis.). Tyk2 (His-Tyk2 (888-1182, C936S, C1142S)) used in this study was expressed and purified at Pfizer Laboratories. Adenosine 5′-triphosphate (ATP) was obtained from (Sigma Chemical Company, St. Louis, Mo.). […] Coating Reagent 3 was purchased from (Caliper Life Sciences, Hopkinton, Mass.).
as §2, §3, §4

T1 sequence (O60674 whole entry): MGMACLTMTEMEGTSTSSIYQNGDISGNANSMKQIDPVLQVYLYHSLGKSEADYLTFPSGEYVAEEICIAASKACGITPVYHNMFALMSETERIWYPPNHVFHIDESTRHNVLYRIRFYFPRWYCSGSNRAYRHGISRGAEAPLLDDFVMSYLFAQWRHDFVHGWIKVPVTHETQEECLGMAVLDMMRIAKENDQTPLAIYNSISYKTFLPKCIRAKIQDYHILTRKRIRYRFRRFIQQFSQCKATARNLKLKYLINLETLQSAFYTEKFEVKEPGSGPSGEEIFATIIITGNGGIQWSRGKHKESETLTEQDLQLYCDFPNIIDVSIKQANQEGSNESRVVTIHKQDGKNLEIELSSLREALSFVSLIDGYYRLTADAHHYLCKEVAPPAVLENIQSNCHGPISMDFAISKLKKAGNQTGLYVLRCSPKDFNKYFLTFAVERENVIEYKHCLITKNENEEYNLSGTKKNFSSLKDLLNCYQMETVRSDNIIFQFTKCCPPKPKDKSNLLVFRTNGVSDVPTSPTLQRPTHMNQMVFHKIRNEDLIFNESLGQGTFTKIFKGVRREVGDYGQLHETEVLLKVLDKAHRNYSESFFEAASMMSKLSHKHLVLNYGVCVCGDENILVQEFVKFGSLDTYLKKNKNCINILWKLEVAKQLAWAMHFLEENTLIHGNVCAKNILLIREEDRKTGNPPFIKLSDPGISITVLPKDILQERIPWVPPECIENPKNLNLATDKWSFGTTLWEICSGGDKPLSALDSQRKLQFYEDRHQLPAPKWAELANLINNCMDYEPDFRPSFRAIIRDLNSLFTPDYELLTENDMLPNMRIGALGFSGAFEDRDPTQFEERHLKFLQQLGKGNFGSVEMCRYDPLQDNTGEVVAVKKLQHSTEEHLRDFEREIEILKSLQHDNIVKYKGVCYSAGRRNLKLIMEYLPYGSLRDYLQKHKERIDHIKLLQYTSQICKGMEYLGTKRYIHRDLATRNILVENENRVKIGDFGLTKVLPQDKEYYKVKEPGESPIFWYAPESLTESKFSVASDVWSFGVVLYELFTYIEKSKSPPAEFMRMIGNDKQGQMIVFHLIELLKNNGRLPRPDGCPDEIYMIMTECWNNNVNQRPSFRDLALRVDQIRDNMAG

Structure (SMILES) | IC50 (JAK2) | IC50 (JAK1) | IC50 (JAK3)
CN(c1ncnc2[nH]ccc12)[C@H]1CC[C@H](CS(=O)(=O)NCCc2cccc(F)c2)CC1 [Example 33, N-[2-(3-fluorophenyl)ethyl]-1-{trans-4-[methyl(7H-pyrrolo[2,3-d]pyrimidin-4-yl)amino]cyclohexyl}-methanesulfonamide] | 24.2 nM | 4.95 nM | 192 nM
Cc1cc2cc(CNS(=O)(=O)C[C@H]3CC[C@H](N(C)c4ncnc5[nH]ccc45)CC3)ccc2[nH]1 [Example 34, N-[(2-methyl-1H-indol-5-yl)methyl]-1-{trans-4-[methyl(7H-pyrrolo[2,3-d]-pyrimidin-4-yl)amino]-cyclohexyl}-methanesulfonamide] | 24.7 nM | 6.76 nM | 224 nM
CN(Cc1cccnc1)S(=O)(=O)C[C@H]1CC[C@H](N(C)c2ncnc3[nH]ccc23)CC1 [Example 35, N-methyl-1-{trans-4-[methyl(7H-pyrrolo[2,3-d]-pyrimidin-4-yl)amino]-cyclohexyl}-N-(pyridin-3-ylmethyl)-methanesulfonamide] | 76.1 nM | 6.85 nM | 622 nM
CN(c1ncnc2[nH]ccc12)[C@H]1CC[C@H](CS(=O)(=O)NCCc2cccc(Cl)c2)CC1 [Example 36, N-[2-(3-chlorophenyl)ethyl]-1-{trans-4-[methyl(7H-pyrrolo[2,3-d]pyrimidin-4-yl)amino]cyclohexyl}-methanesulfonamide] | 41.4 nM | 7.7 nM | 294 nM
CN(c1ncnc2[nH]ccc12)[C@H]1CC[C@H](CS(=O)(=O)N[C@H]2CC[C@H](C(C)(C)O)CC2)CC1 [Example 37, N-[trans-4-(1-hydroxy-1-methylethyl)cyclohexyl]-1-{trans-4-[methyl(7H-pyrrolo[2,3-d]pyrimidin-4-yl)amino]cyclohexyl}-methanesulfonamide] | 33.3 nM | 8.73 nM | 212 nM
CC(C)c1ccc(CCNS(=O)(=O)C[C@H]2CC[C@H](N(C)c3ncnc4[nH]ccc34)CC2)c(F)c1 [Example 38, N-[2-(2-fluoro-4-isopropylphenyl)ethyl]-1-{trans-4-[methyl(7H-pyrrolo[2,3-d]pyrimidin-4-yl)amino]cyclohexyl}-methanesulfonamide] | 55.4 nM | 9.13 nM | 145 nM
CN(c1ncnc2[nH]ccc12)[C@H]1CC[C@H](CS(=O)(=O)NCC(O)c2ccc(F)c(F)c2)CC1 (stereo partly drawn) [Example 39, N-[2-(3,4-difluorophenyl)-2-hydroxyethyl]-1-{trans-4-[methyl(7H-pyrrolo[2,3-d]pyrimidin-4-yl)amino]-cyclohexyl}-methanesulfonamide] | 30.6 nM | 9.79 nM | 240 nM
COc1ccccc1CCCNS(=O)(=O)C[C@H]1CC[C@H](N(C)c2ncnc3[nH]ccc23)CC1 [Example 40, N-[3-(2-methoxyphenyl)-propyl]-1-{trans-4-[methyl(7H-pyrrolo[2,3-d]-pyrimidin-4-yl)amino]-cyclohexyl}-methanesulfonamide] | 29.8 nM | 10.7 nM | 208 nM
CN(c1ncnc2[nH]ccc12)[C@H]1CC[C@H](CS(=O)(=O)NC2CC(NC(=O)OC(C)(C)C)C2)CC1 (stereo partly drawn) [Example 41, tert-butyl (3-{[({trans-4-[methyl(7H-pyrrolo[2,3-d]-pyrimidin-4-yl)amino]-cyclohexyl}methyl)sulfonyl]amino}cyclobutyl)-carbamate] | 123 nM | 11.6 nM | 292 nM
CN(c1ncnc2[nH]ccc12)[C@H]1CC[C@H](CS(=O)(=O)NCCc2ccc(Cl)c(Cl)c2)CC1 [Example 42, N-[2-(3,4-dichlorophenyl)-ethyl]-1-{trans-4-[methyl-(7H-pyrrolo[2,3-d]pyrimidin-4-yl)amino]cyclohexyl}-methanesulfonamide] | 55.7 nM | 14.5 nM | 427 nM
CN(Cc1cnccn1)S(=O)(=O)C[C@H]1CC[C@H](N(C)c2ncnc3[nH]ccc23)CC1 [Example 43, N-methyl-1-{trans-4-[methyl(7H-pyrrolo[2,3-d]-pyrimidin-4-yl)amino]-cyclohexyl}-N-(pyrazin-2-ylmethyl)-methanesulfonamide] | 53.2 nM | 14.9 nM | 517 nM
CN(c1ncnc2[nH]ccc12)[C@H]1CC[C@H](CS(=O)(=O)NC2(Cc3ccccc3)CCC2)CC1 [Example 44, N-(1-benzylcyclobutyl)-1-{trans-4-[methyl(7H-pyrrolo-[2,3-d]pyrimidin-4-yl)amino]-cyclohexyl}methane-sulfonamide] | 112 nM | 15.1 nM | 641 nM
Cc1cnc(CNS(=O)(=O)C[C@H]2CC[C@H](N(C)c3ncnc4[nH]ccc34)CC2)cn1 [Example 45, N-[(5-methylpyrazin-2-yl)methyl]-1-{trans-4-[methyl(7H-pyrrolo[2,3-d]-pyrimidin-4-yl)amino]cyclohexyl}-methanesulfonamide] | 49.7 nM | 15.3 nM | 490 nM
CN(c1ncnc2[nH]ccc12)[C@H]1CC[C@H](CS(=O)(=O)N[C@@H]2CCC[C@@H]2c2ccc(F)cc2)CC1 [Example 46, N-[(1R,2R)-2-(4-fluoro-phenyl)cyclopentyl]-1-{trans-4-[methyl(7H-pyrrolo[2,3-d]pyrimidin-4-yl)amino]cyclohexyl}-methanesulfonamide] | 18.4 nM | 15.6 nM | 355 nM
CN(c1ncnc2[nH]ccc12)[C@H]1CC[C@H](CS(=O)(=O)NC[C@H]2CCCO2)CC1 [Example 47, 1-{trans-4-[methyl(7H-pyrrolo[2,3-d]pyrimidin-4-yl)amino]cyclohexyl}-N-[(2R)-tetrahydrofuran-2-ylmethyl]-methanesulfonamide] | 174 nM | 16.1 nM | 1060 nM
